Experimental data taken from US20240189408A1, “COMPOSITIONS AND METHODS FOR REDUCING METHANE EMISSIONS IN RUMINANT POPULATIONS” (Arkea Bio Corp., priority 2022, published 2024).
Like-named read-outs stand apart in the source and are kept apart here.

Legend:
[1] = 3-NOP volatility, mass loss open to air; assay type: physicochemical; conditions: 500 mg in 5 dram vial open to air, ~18-24C, 15-30% RH, 6 days
Experimental: 3-NOP Volatility:500 mg of 3-NOP in a 5 dram vial was left open to air at ˜18-24C at 15-30% RH over the course of 6 days. Average mass loss is ˜0.25% per day.

[2] = 3-NOP pH and temperature stability by HPLC; assay type: physicochemical; conditions: 1-month, 4-30C, pH 4-10
Excerpt: 3-NOP pH and Temperature Stability: Confirmed via HPLC over a 1-month time period at temperature between 4-30C and pH 4-10.

[3] = test system: methane production in ruminants; conditions: cited from earlier work
[4] = 3-NOP to adsorbent ratio study; assay type: physicochemical; conditions: 24 hr, HPLC
Experimental: Optimal loading of 3-NOP onto adsorbents was determined by varying ratios of 3-NOP to adsorbent. 3-NOP and adsorbent were speed mixed at 2000 rpm for 1 min at the following ratios by weight: 1:1.5, 1:2, 1:2.5. The adsorbed 3-NOP powder mixture was then placed in distilled water at 1% 3-NOP loading. The solution was allowed to equilibrate for 24 hr and then an aliquot was taken for HPLC to determine the reduction in 3-NOP concentration.

[5] = test system: rumen methanogens; conditions: cited from earlier work
[6] = test system: rumen methanogens; conditions: sheep, cited from earlier work
[7] = test system: rumen methanogens; conditions: goats, 10 g/day/goat; cited from earlier work
[8] = test system: rumen methanogens; conditions: cited from earlier work; remark: listed apart in the source
[9] = test system: Methanobrevibacter ruminantium; test: Methane production of methanogen monocultures treated with sera from vaccinated animals; assay type: cell-based; conditions: small molecule inhibitor at 3 different concentrations, FIG. 17B
Experimental: Briefly, BY medium is inoculated with a methanogen-of-interest and combined with serum. The culture tube is crimped closed and pressurized with 80% hydrogen, 20% carbon dioxide. The cultures are incubated and methane in measured intermittently using a GazoMat handheld methane monitoring device. Methane is plotted as a function of time for the various treatment groups and the control group.
200 uL of serum from vaccinated animals were added to sterile anaerobic culture tubes. Open plasma containing tubes were placed into an anaerobic chamber containing 95% nitrogen and 5% hydrogen and allowed to stand 1 hr at ambient temperature. A single seeded culture of methanogen (M. gottschalkii or M. ruminantium) was prepared in BY medium at a volume sufficient to distribute 2.5 mL to each plasma sample and control tube. 2.5 mL of methanogen culture was added to each tube containing the serum, a septa was inserted and crimped into place. Sealed tubes were removed from the anaerobic chamber and each was pressurized with 25 PSI 80% H2, 20% CO2 gas via a hypodermic needle through the septum. Tubes were placed into a 38° C. shaking incubator and periodically removed for methane measurements. Methane measurements in the tube headspace were made with a handheld remote methane detector using a jig to hold the instrument and tube during measurement.

[10] = test system: rumen Methanobrevibacter; conditions: 5.6 μmol/L, in vitro; rumen bacteria not inhibited; cited from earlier work
[11] = test system: Mbb. Ruminantium; conditions: pure cultures; cited from earlier work
[12] = test system: Methanosarcina mazei; conditions: pure cultures; cited from earlier work
[13] = test system: Methanomicrobium mobile; conditions: pure cultures; cited from earlier work

O=[N+]([O-])OCCCO [3-NOP, 3-nitrooxypropanol]
Average mass loss [1]: ~0.25 % per day | pH and Temperature Stability [2]: Confirmed | Addition amount; maximum methane suppression amount ([3]; 0.08 mg/g dry matter (Alvarez-Hess et al., 2019)): 0.08 mg/g dry matter; 44% | Addition amount; maximum methane suppression amount ([3]; 60 mg/kg of feed dry matter (Melgar et al., 2020)): 26%/day (Melgar et al., 2020) | Addition amount; maximum methane suppression amount ([3]; 1.6 g, concentrate pellet (Van Wesemael et al., 2019)): 23% | Addition amount; maximum methane suppression amount ([3]; 1.6 g, roughage (Van Wesemael et al., 2019)): 28% | Average Integrated Area of 3-NOP in solution ([4]; 3-NOP:Adsorbent 1:1.5, distilled water at 1% 3-NOP loading): 2566.4 | Average Integrated Area of 3-NOP in solution ([4]; 3-NOP:Adsorbent 1:2, distilled water at 1% 3-NOP loading): 2566.4 | Average Integrated Area of 3-NOP in solution ([4]; 3-NOP:Adsorbent 1:2.5, distilled water at 1% 3-NOP loading): 2566.4 | decrease of CH4 yield ([5]; beef cattle, 2.0 g/day/cow): 59% | persistence of the inhibition ([5]; beef cattle, 2.0 g/day/cow): up to 112 days | decrease of CH4 production ([5]; dairy cows, 40-80 mg/kg feed DM, persistently for up to 84 days): about 30% | degree of CH4 suppression ([5]; directly added to the rumen through rumen cannula, daily dose 0.50 or 2.5 g per cow): 7-10% | decrease of CH4 production ([6]; 0.5 g/day): 29%

O=C(O)/C=C/C(=O)O [fumarate]
decrease of abundance of methanogens and CH4 production [7]: 11.9% | decrease of CH4 production ([8]; 3.5 g/L, continuous fermenters with forages as a substrate): 38%

CCCCCCCCCCCC(=O)O [lauric acid]
methane production rate [9]: reduction is methane production rate

CC[C@H](C)C(=O)O[C@H]1CCC=C2C=C[C@H](C)[C@H](CC[C@@H]3C[C@@H](O)CC(=O)O3)[C@H]21 [mevastatin]
growth [10]: inhibited the growth of all three strains

CC[N+](=O)[O-] [nitroethane]
Addition amount; maximum methane suppression amount ([3]; 10 mmol/L): 10 mmol/L; 96.7% (NE), | decrease of CH4 production ([6]; orally 24 mg/kg body weight daily for 5 days): up to 45% | decrease of CH4 production ([6]; orally 72 mg/kg body weight daily for 5 days): ≤ 69%

C#CC(=O)O [propynoic acid]
sensitivity to the inhibitor, ranking of three species [11]: most sensitive | sensitivity to the inhibitor, ranking of three species [12]: least sensitive | lowering of CH4 production ([8]; 6 mmol/L): 67% | lowering of CH4 production ([8]; 12 mmol/L): 78% | sensitivity to the inhibitor, ranking of three species [13]: intermediate
